Earlier results as cited in patent US20140303227A1, “TRANSMUCOSAL HORMONE DELIVERY SYSTEM” (Pharmaceutical Productions Inc., priority 2013, published 2014).

Conditions: pH 6.8

For CN1CCCC1c1cccnc1 (stereo not shown) [nicotine], the “nicotine in the free base form” value is listed as “about 10%”.
